Experimental findings from patent US20240002404A1, “SALT OF PYRROLOPYRIMIDINE COMPOUND, CRYSTALLINE FORM THEREOF, AND APPLICATION THEREOF” (GUANGZHOU JOYO PHARMATECH CO., LTD, priority 2020, published 2024) are described below.

The subject of one series is Caco-2 cells. The experiment in a line: in vitro. The following applies: Caco-2. Here is the method: (§1) The transport buffer solution was HBSS (Hanks' balanced salt solution) and 10 mM HEPES [N-(2-hydroxyethyl)piperazine-N-(2-ethanesulfonic acid) solution], with a pH value of 7.40±0.05; Caco-2 cells were purchased from ATCC.
(§2) Caco-2 cells were seeded at 1×10^5 cells/cm^2 in 96-well BD insert plates of polyethylene terephthalate (PET), and the medium was refreshed every 4-5 days until day 21-28 to form a confluent monolayer. Test compounds were tested in a two-way format at 2 μM in duplicate. Digoxin was added at 10 μM in the two-way format, and nadolol and metoprolol were added at 2 μM in the two-way format. Final concentration of DMSO was adjusted to less than 1%. The plates were incubated in a CO2 incubator at 37±1° C. for 2 h with 5% CO2 at saturated humidity without shaking. All samples were mixed with acetonitrile containing an internal standard, and centrifuged at 4000 rpm for 10 min. 100 microliters of supernatant was diluted with 100 microliters of distilled water for LC/MS/MS analysis. By LC/MS/MS analysis, the concentrations of the test compounds and the reference compound in the initial test article solution, the test article solution and the test compound solution using the peak area ratio of the analyte to the internal standard. After the transport test, the integrity of the Caco-2 cell monolayer was determined by fluorescein yellow exclusion reaction, and the apparent permeability coefficient and efflux ratio were calculated.

The next series addresses JAK1(h) (Homo sapiens (Human), UniProt P23458). The experiment in a line: In vitro activity assay of JAK1 kinase (radiometric, Eurofins). The format is biochemical. Here is the method: (§3) Recombinant human JAK1, JAK2, JAK3 and TYK2 […], and main instruments and reagents were provided by Eurofins, UK.
(§4) Dilution of JAK2, JAK3 and TYK2: 20 mM 3-(N-morpholino)propanesulfonic acid (MOPS), 1 mM EDTA, 0.01% Brij-35.5% glycerol, 0.1% β-mercaptoethanol, 1 mg/mL BSA; dilution of JAK1: 20 mM TRIS, 0.2 mM EDTA, 0.1% β-mercaptoethanol, 0.01% Brij-35.5% glycerol. All compounds were prepared into a 100% DMSO solution and brought to 50-fold the final assay concentration. The test compounds were diluted in 3-fold concentration gradient with 9 final concentrations from 10 μM to 0.001 μM, wherein DMSO content in the assay reaction was 2%. Working stock solutions of the compounds were added to the assay wells as the first component of the reaction, and then the remaining components were added according to the protocol detailed for the assay below.
JAK1(h) was incubated with 20 mM Tris/HCl pH 7.5, 0.2 mM EDTA, 500 μM MGEEPLYWSFPAKKK, 10 mM magnesium acetate and [γ-^33P]-ATP (activity and concentration were determined as required). […] 10 μL of the reaction mixture was then added dropwise on a P30 filter pad and washed three times with 0.425% phosphoric acid and once with methanol within 4 minutes, then dried and analyzed using a scintillation counter.

Series [1] concerns adjuvant-induced arthritis (AIA). The experiment in a line: Adjuvant-induced arthritis (AIA) in rats, in-vivo pharmacodynamic study. The arrangement: species or system Lewis rats. The following applies: rat AIA. The protocol:
The compounds disclosed herein were tested for their efficacy on arthritis using a model of adjuvant-induced arthritis in rat. Female, 160 to 180 gram Lewis rats were anesthetized with isoflurane and injected subcutaneously with 0.1 mL of Mycobacterium tuberculosis suspension in the left hind paw. The animals were grouped and administered with thetest compounds after 13 days of modeling, for example, the rats were given different doses as shown in Table 4-2. The test compound 1-13 was dissolved in a mixed menstruum of [5% DMSO, 95% (12% SBE-β-CD), 0.5% MC]. The female Lewis rats were orally administered 2 times daily (8 animals in each group).

Another series addresses TYK2(h) (Homo sapiens (Human), UniProt P29597). The experiment in a line: In vitro activity assay of TYK2 kinase (radiometric, Eurofins). The format is biochemical. Here is the method:
as §3, §4
TYK2(h) was incubated with 8 mM MOPS pH 7.0, 0.2 mM EDTA, 250 μM GGMEDIYFEFMGGKKK, 10 mM magnesium acetate and [γ-^33P]-ATP (activity and concentration were determined as required). […] 10 μL of the reaction mixture was then added dropwise on a P30 filter pad and washed three times with 0.425% phosphoric acid and once with methanol within 4 minutes, then dried and analyzed using a scintillation counter.

A short description of series [2]: Pharmacokinetic (PK) test in mice. The format is in vivo, mice (C57BL/6). Conditions: mouse, plasma, male C57BL/6 mice. The protocol: Clear solutions obtained by dissolving the test compounds were administered to male mice (C57BL/6) or rats (SD) by tail vein injection and oral gavage (overnight fasting, 7-8 weeks old). After the administration of the test compounds, blood was collected from the mandibular vein and centrifuged to obtain plasma at 0.117, 0.333, 1, 2, 4, 7 and 24 h for the intravenous injection group (1 mg/kg), and at 0.25, 0.5, 1, 2, 4, 8 and 24 h for the oral gavage group (3 mg/kg). The plasma concentration was measured by LC-MS/MS, and the relevant pharmacokinetic parameters were calculated by WinNonlin™ Version 6.3 pharmacokinetic software using non-compartmental model linear logarithmic trapezoid method.

The next series is described as follows: in vitro. The following applies: human, Caco-2, pH 7.4. Here is the method: as §1, §2
The next series concerns the target JAK2(h) (Homo sapiens (Human), UniProt O60674). The experiment in a line: In vitro activity assay of JAK2 kinase (radiometric, Eurofins). The format is biochemical. Here is the method:
as §3, §4
JAK2(h) was incubated with 8 mM MOPS pH 7.0, 0.2 mM EDTA, 100 μM […], 10 mM magnesium acetate and [γ-^33P]-ATP (activity and concentration were determined as required). The reaction was started by adding the Mg/ATP mixture and terminated by adding 0.5% phosphoric acid after 40 min of incubation at room temperature. 10 μL of the reaction mixture was then added dropwise on a P30 filter pad and washed three times with 0.425% phosphoric acid and once with methanol within 4 minutes, then dried and analyzed using a scintillation counter.

In the next series the target is JAK3(h) (Homo sapiens (Human), UniProt P52333). The experiment in a line: In vitro activity assay of JAK3 kinase (radiometric, Eurofins). The class given is biochemical. The protocol: as §3, §4
Chain of JAK3(h) (P52333 whole entry): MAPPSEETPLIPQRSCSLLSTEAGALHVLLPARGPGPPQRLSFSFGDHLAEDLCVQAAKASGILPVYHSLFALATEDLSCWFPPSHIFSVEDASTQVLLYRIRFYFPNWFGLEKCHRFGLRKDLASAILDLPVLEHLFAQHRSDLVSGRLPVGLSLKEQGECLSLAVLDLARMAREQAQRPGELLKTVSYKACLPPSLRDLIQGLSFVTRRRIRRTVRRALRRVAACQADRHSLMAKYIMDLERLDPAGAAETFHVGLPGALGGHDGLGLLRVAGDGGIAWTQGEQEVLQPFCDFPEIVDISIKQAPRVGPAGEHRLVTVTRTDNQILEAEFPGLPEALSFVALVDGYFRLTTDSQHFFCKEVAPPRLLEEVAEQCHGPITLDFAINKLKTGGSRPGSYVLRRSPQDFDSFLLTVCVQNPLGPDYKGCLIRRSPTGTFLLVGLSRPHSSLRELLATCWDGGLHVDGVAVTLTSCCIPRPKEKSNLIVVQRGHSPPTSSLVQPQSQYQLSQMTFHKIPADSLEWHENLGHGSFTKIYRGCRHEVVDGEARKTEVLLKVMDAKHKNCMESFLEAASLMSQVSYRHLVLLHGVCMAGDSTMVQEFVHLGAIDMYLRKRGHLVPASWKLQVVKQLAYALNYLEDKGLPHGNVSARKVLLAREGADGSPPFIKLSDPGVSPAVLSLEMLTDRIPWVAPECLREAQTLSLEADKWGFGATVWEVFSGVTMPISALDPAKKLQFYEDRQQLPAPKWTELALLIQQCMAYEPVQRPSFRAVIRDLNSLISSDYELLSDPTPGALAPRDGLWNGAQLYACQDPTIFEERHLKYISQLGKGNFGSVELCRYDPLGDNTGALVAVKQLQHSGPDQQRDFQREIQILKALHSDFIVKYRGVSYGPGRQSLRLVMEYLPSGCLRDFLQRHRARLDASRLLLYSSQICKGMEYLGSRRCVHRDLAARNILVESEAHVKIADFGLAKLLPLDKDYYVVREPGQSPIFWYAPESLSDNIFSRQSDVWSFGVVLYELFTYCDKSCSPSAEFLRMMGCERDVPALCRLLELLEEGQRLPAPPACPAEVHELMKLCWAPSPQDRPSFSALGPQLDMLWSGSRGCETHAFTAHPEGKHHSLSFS
JAK3(h) was incubated with 8 mM MOPS pH 7.0, 0.2 mM EDTA, 500 μM GGEEEEYFELVKKKK, 10 mM magnesium acetate and [γ-^33P]-ATP (activity and concentration were determined as required). […] 10 μL of the reaction mixture was then added dropwise on a P30 filter pad and washed three times with 0.425% phosphoric acid and once with methanol within 4 minutes, then dried and analyzed using a scintillation counter.

Series [3] in a line: Basic pKa of the compound. The class given is physicochemical. From the text: The present disclosure also performs salt-forming screening on L-aspartic acid, fumaric acid, L-tartaric acid and citric acid. Using the crystal form A of the compound represented by formula (II) as raw material, according to the basic pKa (4.47) of the compound and the rough solubility of the starting material in different solvents at room temperature, L-aspartic acid, fumaric acid, L-tartaric acid and citric acid were selected as acidic ligands (molar ratio of free state to acidic ligand was 1:1), and the specific steps of the screening test of five solvent systems as shown in Table 24 were as follows: about 20 mg of the starting crystal form A of the compound represented by formula (II) and equimolar amounts of the above acid were weighed into an HPLC vial, and 0.5 mL of the following solvent were added thereto and mixed to obtain a suspension. After suspending and stirring at room temperature for 3 days, the solid was separated by centrifugation and dried under vacuum at room temperature for about 4 hours.

[4] abbreviates: iv 1 mg/kg, oral gavage 3 mg/kg.

SMILES strings stand for the structures.

Chain of TYK2(h) (P29597 whole entry): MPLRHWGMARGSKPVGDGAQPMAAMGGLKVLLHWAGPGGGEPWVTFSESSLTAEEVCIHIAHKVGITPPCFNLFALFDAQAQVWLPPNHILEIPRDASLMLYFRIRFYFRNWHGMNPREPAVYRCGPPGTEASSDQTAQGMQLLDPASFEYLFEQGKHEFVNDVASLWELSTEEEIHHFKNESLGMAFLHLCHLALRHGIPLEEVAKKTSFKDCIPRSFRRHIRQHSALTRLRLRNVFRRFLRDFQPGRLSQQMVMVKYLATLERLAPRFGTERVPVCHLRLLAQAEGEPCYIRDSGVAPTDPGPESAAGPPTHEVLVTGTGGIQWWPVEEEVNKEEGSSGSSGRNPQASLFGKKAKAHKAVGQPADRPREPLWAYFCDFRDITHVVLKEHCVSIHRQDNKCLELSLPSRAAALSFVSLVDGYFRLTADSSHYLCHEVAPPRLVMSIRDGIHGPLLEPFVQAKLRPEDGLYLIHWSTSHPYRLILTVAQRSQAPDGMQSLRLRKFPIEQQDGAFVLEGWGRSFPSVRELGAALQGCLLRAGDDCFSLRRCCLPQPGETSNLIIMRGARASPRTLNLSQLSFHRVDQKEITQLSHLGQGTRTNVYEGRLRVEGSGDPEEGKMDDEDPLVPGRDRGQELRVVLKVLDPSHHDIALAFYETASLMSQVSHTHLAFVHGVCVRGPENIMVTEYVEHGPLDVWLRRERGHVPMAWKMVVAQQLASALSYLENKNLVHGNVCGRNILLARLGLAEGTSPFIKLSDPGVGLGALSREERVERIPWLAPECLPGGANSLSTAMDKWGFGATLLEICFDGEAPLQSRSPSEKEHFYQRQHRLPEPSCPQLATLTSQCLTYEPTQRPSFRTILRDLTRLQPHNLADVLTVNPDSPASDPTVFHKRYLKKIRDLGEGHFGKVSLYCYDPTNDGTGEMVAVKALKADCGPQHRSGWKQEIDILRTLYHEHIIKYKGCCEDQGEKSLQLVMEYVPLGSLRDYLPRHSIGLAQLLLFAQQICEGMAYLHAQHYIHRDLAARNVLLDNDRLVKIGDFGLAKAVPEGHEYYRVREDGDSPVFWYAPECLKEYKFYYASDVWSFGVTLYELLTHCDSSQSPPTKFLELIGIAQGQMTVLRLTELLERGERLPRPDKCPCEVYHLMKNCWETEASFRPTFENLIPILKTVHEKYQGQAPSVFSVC
Chain of JAK1(h) (P23458 whole entry): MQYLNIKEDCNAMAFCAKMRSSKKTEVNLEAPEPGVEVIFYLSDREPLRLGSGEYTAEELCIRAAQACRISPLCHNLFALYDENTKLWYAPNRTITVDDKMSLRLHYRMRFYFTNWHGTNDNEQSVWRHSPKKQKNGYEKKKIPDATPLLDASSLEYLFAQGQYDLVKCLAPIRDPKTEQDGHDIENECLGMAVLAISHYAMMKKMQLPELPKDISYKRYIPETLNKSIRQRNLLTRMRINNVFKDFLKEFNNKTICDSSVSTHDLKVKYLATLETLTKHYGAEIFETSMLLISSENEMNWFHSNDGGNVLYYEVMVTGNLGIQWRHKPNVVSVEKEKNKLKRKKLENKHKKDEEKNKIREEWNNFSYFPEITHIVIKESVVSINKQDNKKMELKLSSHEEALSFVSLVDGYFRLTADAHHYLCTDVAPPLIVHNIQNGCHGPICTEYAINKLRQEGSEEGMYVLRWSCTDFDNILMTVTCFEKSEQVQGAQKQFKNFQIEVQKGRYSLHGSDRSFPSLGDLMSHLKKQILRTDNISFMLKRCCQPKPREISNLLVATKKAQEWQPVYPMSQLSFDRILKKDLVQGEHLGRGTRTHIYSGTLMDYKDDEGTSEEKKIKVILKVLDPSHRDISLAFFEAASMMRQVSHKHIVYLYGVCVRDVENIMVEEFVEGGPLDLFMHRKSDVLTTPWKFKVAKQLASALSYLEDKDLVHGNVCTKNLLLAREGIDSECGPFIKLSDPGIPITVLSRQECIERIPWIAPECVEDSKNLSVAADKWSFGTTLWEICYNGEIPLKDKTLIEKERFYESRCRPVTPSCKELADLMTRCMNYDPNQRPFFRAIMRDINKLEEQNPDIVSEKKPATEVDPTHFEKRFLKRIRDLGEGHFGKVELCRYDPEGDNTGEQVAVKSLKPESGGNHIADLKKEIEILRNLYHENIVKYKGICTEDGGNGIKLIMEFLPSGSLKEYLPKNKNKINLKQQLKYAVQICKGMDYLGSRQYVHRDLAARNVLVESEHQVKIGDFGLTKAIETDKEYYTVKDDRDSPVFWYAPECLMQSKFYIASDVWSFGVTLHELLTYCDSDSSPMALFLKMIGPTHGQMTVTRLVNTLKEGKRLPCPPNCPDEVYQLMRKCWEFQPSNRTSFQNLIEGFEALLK
Chain of JAK2(h) (O60674 whole entry): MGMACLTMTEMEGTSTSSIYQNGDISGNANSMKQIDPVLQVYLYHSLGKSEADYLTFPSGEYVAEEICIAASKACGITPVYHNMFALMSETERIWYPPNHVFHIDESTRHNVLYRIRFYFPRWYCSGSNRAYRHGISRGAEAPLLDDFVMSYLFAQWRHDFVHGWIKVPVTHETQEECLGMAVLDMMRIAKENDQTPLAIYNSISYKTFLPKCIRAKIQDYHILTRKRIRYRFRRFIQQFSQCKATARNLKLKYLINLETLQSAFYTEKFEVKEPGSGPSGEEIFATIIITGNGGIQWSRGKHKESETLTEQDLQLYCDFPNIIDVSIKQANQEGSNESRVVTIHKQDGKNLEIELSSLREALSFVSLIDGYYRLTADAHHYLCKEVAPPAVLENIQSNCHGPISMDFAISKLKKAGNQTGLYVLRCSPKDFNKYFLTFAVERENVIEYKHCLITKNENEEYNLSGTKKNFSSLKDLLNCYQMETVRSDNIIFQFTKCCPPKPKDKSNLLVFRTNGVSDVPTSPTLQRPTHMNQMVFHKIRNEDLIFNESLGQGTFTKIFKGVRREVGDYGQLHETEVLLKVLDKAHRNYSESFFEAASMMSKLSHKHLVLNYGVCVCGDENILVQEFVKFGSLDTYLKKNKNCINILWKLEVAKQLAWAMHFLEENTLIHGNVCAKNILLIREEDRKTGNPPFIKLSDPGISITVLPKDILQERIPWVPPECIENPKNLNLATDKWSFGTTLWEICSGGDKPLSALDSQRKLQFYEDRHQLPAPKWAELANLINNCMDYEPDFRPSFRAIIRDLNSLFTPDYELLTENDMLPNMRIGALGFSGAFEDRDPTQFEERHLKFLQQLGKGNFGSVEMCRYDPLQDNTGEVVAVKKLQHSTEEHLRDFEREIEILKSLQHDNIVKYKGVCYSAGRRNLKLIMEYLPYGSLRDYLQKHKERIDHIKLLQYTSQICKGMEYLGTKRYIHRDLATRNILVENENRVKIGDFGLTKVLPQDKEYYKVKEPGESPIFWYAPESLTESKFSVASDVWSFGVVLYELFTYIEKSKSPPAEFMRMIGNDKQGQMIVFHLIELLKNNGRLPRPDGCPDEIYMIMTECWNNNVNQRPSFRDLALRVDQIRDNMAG

Consider `CC(C)(C)NCC(O)COc1cccc2c1CC(O)C(O)C2` (stereo not shown) [Nadolol], for which the “Mean apparent permeability coefficient Mean Papp A to B” value in the series with Caco-2 cells is 0.16 10^−6 cm/s.

In general, IC50 refers to the concentration that gives 50% inhibition. The AUC(0-inf) is the area under the concentration-time curve extrapolated to infinity. A lower AUC(0-inf) goes with low exposure. By Cmax is commonly meant the highest concentration seen after dosing. As a reminder, the half-life is the time needed for the level to fall by half in the phase considered. A lower half-life goes with rapid decline. What is called bioavailability is dose-corrected exposure relative to a reference, in per cent. Read a high bioavailability as good availability. As a reminder, the Papp A→B is how fast a substance crosses the layer from the apical side. A lower Papp A→B goes with poor permeation. By Papp B→A is commonly meant how fast a substance crosses the layer from the basolateral side. As usually defined, the efflux ratio is the permeability from basolateral to apical divided by that in the opposite direction, in the common usage. For orientation: pKa means the pH at which an ionisable group is half protonated. Low values mean a group that gives up its proton readily, high ones a group that holds its proton tightly. On to `CN(c1ncnc2[nH]ccc12)[C@@H]1CCc2cc(C#N)nn2C1`, for which the half-inhibitory concentration (IC50) on JAK1(h) turned out to be 1 nM; on TYK2(h), 15 nM; on JAK2(h), 8 nM; against JAK3(h), 118 nM. Also, in [1] (3 mg/kg and 10 mg/kg, P<0.0001), the “therapeutic effect (inhibition rate versus menstruum control group)” value is “significant therapeutic effect”. The “Inhibition on area under the clinical score curve (AUC)” value in [1] (3 mg/kg oral 2 times daily) is 49.6%; in [1] (10 mg/kg oral 2 times daily), 60.5%. Also, the area under the curve AUC(0-inf) in series [2] (setting [4]) was 12.8 µM·h. Also, the highest concentration (Cmax) in series [2] (setting [4]) was 6 µM. The half-life in series [2] (setting [4]) is 1.89 h. In [2] (oral gavage 3 mg/kg vs iv 1 mg/kg), this molecule returned a bioavailability of 88.4%. In “in vitro”, the apparent permeability from apical to basolateral (Papp A→B) at 2 h, 2 μM was 28.6 ×10⁻⁶ cm/s. The molecule also displayed a Papp B→A at 2 h, 2 μM in the series “in vitro” of 31.2 ×10⁻⁶ cm/s. Also, in the series “in vitro”, the efflux ratio at 2 h, 2 μM was 1.09. The molecule also showed a pKa in [3] of 4.47.
